Reference: patent publication US20240279215A1 (Cytokinetics, Incorporated, priority 2022, published 2024)
Counter-ions that a name gives are not always drawn.

These compounds were tested against human NAMPT (Homo sapiens (Human), UniProt P43490) (assay: NMN fluorescence biochemical assay (human recombinant NAMPT enzyme assay)).
Procedure, shortened: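 NMN formed was detected by fluorescence (Ex/Em 355/460 nm) after acetophenone, KOH and formic acid derivatization. The cell-free reaction ran 60 min at ambient temperature with 6 nM human NAMPT, 150 μM nicotinamide, 20 μM PRPP, 2.5 mM ATP, pH 7.2 HEPES, and compound dose responses.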

Sequence of human NAMPT (P43490 whole entry): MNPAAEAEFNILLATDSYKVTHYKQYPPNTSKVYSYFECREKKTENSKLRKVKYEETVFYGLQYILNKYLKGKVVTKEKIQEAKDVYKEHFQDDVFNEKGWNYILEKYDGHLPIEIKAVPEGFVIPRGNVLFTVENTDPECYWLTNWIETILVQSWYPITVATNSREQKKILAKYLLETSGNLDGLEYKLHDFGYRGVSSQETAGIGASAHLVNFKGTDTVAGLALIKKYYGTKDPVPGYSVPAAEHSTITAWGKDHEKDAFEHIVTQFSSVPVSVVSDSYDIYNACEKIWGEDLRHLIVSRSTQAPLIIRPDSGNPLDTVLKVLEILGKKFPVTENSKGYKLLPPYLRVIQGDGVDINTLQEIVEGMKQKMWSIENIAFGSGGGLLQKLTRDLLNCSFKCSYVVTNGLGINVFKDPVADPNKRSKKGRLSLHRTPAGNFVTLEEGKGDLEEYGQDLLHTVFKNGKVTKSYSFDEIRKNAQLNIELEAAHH

Row | SMILES | AC1.4 Human [µM] | EC50 [µM]
1 | Cc1n[nH]c(C)c1C(=O)N(C)Cc1ccc(NC(=O)OCc2ccc(Cl)cc2)cc1 [Compound 206, (4-chlorophenyl)methyl N-(4-{[1-(3,5-dimethyl-1H-pyrazol-4-yl)-N-methylformamido]methyl}phenyl)carbamate] | 1.85 | 14.7
2 | O=C(Nc1ccc(CNC(=O)c2ncccc2F)cc1)OCc1ccc(Cl)cc1 [Compound 207, (4-chlorophenyl)methyl N-(4-{[(3-fluoropyridin-2-yl)formamido]methyl}phenyl)carbamate] | 1.85 | 9.34
3 | CCc1cc(C(=O)NCc2ccc(NC(=O)OCc3ccc(Cl)cc3)cc2)n(C)n1 [Compound 208, (4-chlorophenyl)methyl N-(4-{[(5-ethyl-2-methylpyrazol-3-yl)formamido]methyl}phenyl)carbamate] | 1.87 | 17.4
4 | Cc1ncoc1C(=O)NCc1ccc(NC(=O)OCc2ccc(Cl)cc2)cc1 [Compound 209, (4-chlorophenyl)methyl N-(4-{[(4-methyl-1,3-oxazol-5-yl)formamido]methyl}phenyl)carbamate] | 1.88 | 21.6
5 | C[C@H](NC(=O)c1ccnn1C1CCC1)c1ccc(NC(=O)OCc2ccc(Cl)cc2)cc1 [Compound 210, (4-chlorophenyl)methyl N-{4-[(1S)-1-[(2-cyclobutylpyrazol-3-yl)formamido]ethyl]phenyl}carbamate] | 1.91 | 3.82
6 | Cc1nc(C)c(C(=O)NCc2ccc(NC(=O)OCc3ccc(Cl)cc3)cc2)o1 [Compound 211, (4-chlorophenyl)methyl N-(4-{[(2,4-dimethyl-1,3-oxazol-5-yl)formamido]methyl}phenyl)carbamate] | 1.91 | 10.6
7 | O=C(Nc1ccc(CC(=O)N2CCC(F)CC2)cc1)OCc1ccc(Cl)cc1 [Compound 212, (4-chlorophenyl)methyl N-{4-[2-(4-fluoropiperidin-1-yl)-2-oxoethyl]phenyl}carbamate] | 1.93 | 10.2
8 | COc1nc(C)ccc1C(=O)N[C@@H](C)c1ccc(NC(=O)OCc2ccc(Cl)cc2)cc1 [Compound 213, (4-chlorophenyl)methyl N-{4-[(1S)-1-[(2-methoxy-6-methylpyridin-3-yl)formamido]ethyl]phenyl}carbamate] | 1.95 | 2.92
9 | Cc1ccc(C(=O)NCc2ccc(NC(=O)OCc3ccc(Cl)cc3)cc2)nc1 [Compound 214, (4-chlorophenyl)methyl N-(4-{[(5-methylpyridin-2-yl)formamido]methyl}phenyl)carbamate] | 1.96 | 9.59
10 | CC1CCCN1C(=O)Cc1ccc(NC(=O)OCc2ccc(Cl)cc2)cc1 (stereo not shown) [Compound 215, (4-chlorophenyl)methyl N-{4-[2-(2-methylpyrrolidin-1-yl)-2-oxoethyl]phenyl}carbamate] | 1.96 | 8.35
11 | O=C(Nc1ccc(Cc2ccncc2)cc1)OCc1ccc(Cl)cc1 [Compound 216, 4-chlorobenzyl (4-(pyridin-4-ylmethyl)phenyl)carbamate] | 1.98 | 5.81
12 | COc1ccc(COC(=O)Nc2ccc(COC3CCN(C(C)=O)CC3)cc2)cc1 [Compound 217, 4-methoxybenzyl (4-(((1-acetylpiperidin-4-yl)oxy)methyl)phenyl)carbamate] | 1.98 | 24.4
13 | Cc1ncc(C(=O)N[C@@H](C)c2ccc(NC(=O)OCc3ccc(Cl)cc3)cc2)o1 [Compound 218, (4-chlorophenyl)methyl N-{4-[(1S)-1-[(2-methyl-1,3-oxazol-5-yl)formamido]ethyl]phenyl}carbamate] | 1.99 | 9.06
14 | O=C(Nc1ccc(Cc2ccncc2)cc1)OCc1ccns1 [Compound 219, isothiazol-5-ylmethyl (4-(pyridin-4-ylmethyl)phenyl)carbamate] | 2.03 | 20.6
15 | O=C(Nc1ccc(CC(=O)N2CCOCC2)cc1)OCc1ccc(Cl)cc1 [Compound 220, (4-chlorophenyl)methyl N-{4-[2-(morpholin-4-yl)-2-oxoethyl]phenyl}carbamate] | 2.03 | 32.5
16 | O=C(Cc1ccc(NC(=O)OCc2ccc(Cl)cc2)cc1)N[C@H]1CC[C@H](OC(F)F)CC1 [Compound 221, (4-chlorophenyl)methyl N-[4-({[(1r,4r)-4-(difluoromethoxy)cyclohexyl]carbamoyl}methyl)phenyl]carbamate] | 2.04 | 2.16
17 | CS(=O)(=O)C1CN(Cc2ccc(NC(=O)OCc3ccc(Cl)cc3)cc2)C1 [Compound 222, (4-chlorophenyl)methyl N-{4-[(3-methanesulfonylazetidin-1-yl)methyl]phenyl}carbamate] | 2.05 | 27.6
18 | O=C(Nc1ccc(CN2CCN(C3COC3)CC2)cc1)OCc1ccc(Cl)cc1 [Compound 223, (4-chlorophenyl)methyl N-(4-{[4-(oxetan-3-yl)piperazin-1-yl]methyl}phenyl)carbamate] | 2.05 | 17.6

Row | SMILES | AC1.4 Human [µM] | EC50 [µM]
19 | C[C@H](NC(=O)Cc1ncco1)c1ccc(NC(=O)OCc2ccc(Cl)cc2)cc1 [Compound 224, 4-chlorobenzyl (S)-(4-(1-(2-(oxazol-2-yl)acetamido)ethyl)phenyl)carbamate] | 2.08 | 10.1
20 | Cc1cc(C(=O)NCc2ccc(NC(=O)OCc3ccc(Cl)cc3)cc2)n(C)n1 [Compound 225, (4-chlorophenyl)methyl N-(4-{[(2,5-dimethylpyrazol-3-yl)formamido]methyl}phenyl)carbamate] | 2.08 | 9.1
21 | O=C(Nc1ccc(CNC(=O)c2cnccn2)cc1)OCc1ccc(Cl)cc1 [Compound 226, (4-chlorophenyl)methyl N-{4-[(pyrazin-2-ylformamido)methyl]phenyl}carbamate] | 2.09 | 6.14
22 | Cc1ccc(C(=O)NCc2ccc(NC(=O)OCc3ccc(F)cc3)cc2)cn1 [Compound 227, 4-fluorobenzyl (4-((6-methylnicotinamido)methyl)phenyl)carbamate] | 2.11 | 3.47
23 | CN1CC[C@H](NCc2ccc(NC(=O)OCc3ccc(Cl)cc3)cc2)C1=O [Compound 228, 4-chlorobenzyl (S)-(4-(((1-methyl-2-oxopyrrolidin-3-yl)amino)methyl)phenyl)carbamate] | 2.11 | 21.4
24 | CO[C@@H]1CCCN(C(=O)Cc2ccc(NC(=O)OCc3ccc(Cl)cc3)cc2)C1 [Compound 229, (4-chlorophenyl)methyl N-(4-{2-[(3R)-3-methoxypiperidin-1-yl]-2-oxoethyl}phenyl)carbamate] | 2.13 | 12.8
25 | C[C@H](NC(=O)[C@H]1C[C@@H]2[C@H](C1)C2(F)F)c1ccc(NC(=O)OCc2cnco2)cc1 [Compound 230, 1,3-oxazol-5-ylmethyl N-{4-[(1S)-1-{[(1R,3r,5S)-6,6-difluorobicyclo[3.1.0]hexan-3-yl]formamido}ethyl]phenyl}carbamate] | 2.13 | 15.3
26 | O=C(Nc1ccc(CC2CCNCC2)cc1)OCc1ccc(Cl)cc1 [Compound 231, 4-chlorobenzyl (4-(piperidin-4-ylmethyl)phenyl)carbamate hydrochloride] | 2.13 | 33.8
27 | O=C(Nc1ccc(Cc2ccccn2)cc1)OCc1ccc(Cl)cc1 [Compound 233, 4-chlorobenzyl (4-(pyridin-2-ylmethyl)phenyl)carbamate] | 2.18 | 7.8
28 | CC(C)c1ccc(C(=O)NCc2ccc(NC(=O)OCc3ccc(Cl)cc3)cc2)cn1 [Compound 234, (4-chlorophenyl)methyl N-(4-{[(6-isopropylpyridin-3-yl)formamido]methyl}phenyl)carbamate] | 2.19 | 3.38
29 | O=C1CN(C(=O)Cc2ccc(NC(=O)OCc3ccc(Cl)cc3)cc2)CCN1 [Compound 235, (4-chlorophenyl)methyl N-{4-[2-oxo-2-(3-oxopiperazin-1-yl)ethyl]phenyl}carbamate] | 2.22 | 44.9
30 | O=C1CN(C2CCC2)[C@@H](c2ccc(NC(=O)OCc3ccc(Cl)cc3)cc2)CN1 [Compound 236, 4-chlorobenzyl (S)-(4-(1-cyclobutyl-5-oxopiperazin-2-yl)phenyl)carbamate] | 2.25 | 50.6
31 | O=C(Nc1ccc(CC(=O)N2CCC[C@@H](O)C2)cc1)OCc1ccc(Cl)cc1 [Compound 237, (4-chlorophenyl)methyl N-(4-{2-[(3R)-3-hydroxypiperidin-1-yl]-2-oxoethyl}phenyl)carbamate] | 2.25 | 32.3
32 | O=C(Nc1ccc(CNC(=O)c2ccnn2C2CCOCC2)cc1)OCc1ccc(Cl)cc1 [Compound 238, (4-chlorophenyl)methyl N-[4-({[2-(oxan-4-yl)pyrazol-3-yl]formamido}methyl)phenyl]carbamate] | 2.29 | 10.6
33 | O=C(Nc1ccc(CNC(=O)c2ccc(C(F)(F)F)nc2)cc1)OCc1ccc(Cl)cc1 [Compound 239, (4-chlorophenyl)methyl N-[4-({[6-(trifluoromethyl)pyridin-3-yl]formamido}methyl)phenyl]carbamate] | 2.32 | 1.89
34 | CC1CCN(C(=O)Cc2ccc(NC(=O)OCc3ccc(Cl)cc3)cc2)CC1 [Compound 240, (4-chlorophenyl)methyl N-{4-[2-(4-methylpiperidin-1-yl)-2-oxoethyl]phenyl}carbamate] | 2.33 | 2.73
35 | Cc1ocnc1C(=O)N[C@@H](C)c1ccc(NC(=O)OCc2ccc(Cl)cc2)cc1 [Compound 241, (4-chlorophenyl)methyl N-{4-[(1S)-1-[(5-methyl-1,3-oxazol-4-yl)formamido]ethyl]phenyl}carbamate] | 2.37 | 11.8
